Experimental data: patent publication US6649608B2, “2,4-di(hetero-)arylamino (oxy)-5-substituted pyrimidines as antineoplastic agents” (AstraZeneca AB, priority 2000, dated 2003)

Key:
[1] = target: T1, human Focal Adhesion Kinase (FAK) (Homo sapiens, UniProt Q05397); assay: FAK3 Kinase Inhibition Assay (in vitro enzyme ELISA); format: biochemical; settings: read-out: FAK inhibitory activity IC50
T1 construct: FAK (fall length human cDNA described by Andre et al); made in house; host or cells: insect cells (Sf21; printed 'Sf12'), baculovirus, pFastbac 1; cell lysate supernatant used as enzyme stock
T1 sequence (Q05397 whole entry): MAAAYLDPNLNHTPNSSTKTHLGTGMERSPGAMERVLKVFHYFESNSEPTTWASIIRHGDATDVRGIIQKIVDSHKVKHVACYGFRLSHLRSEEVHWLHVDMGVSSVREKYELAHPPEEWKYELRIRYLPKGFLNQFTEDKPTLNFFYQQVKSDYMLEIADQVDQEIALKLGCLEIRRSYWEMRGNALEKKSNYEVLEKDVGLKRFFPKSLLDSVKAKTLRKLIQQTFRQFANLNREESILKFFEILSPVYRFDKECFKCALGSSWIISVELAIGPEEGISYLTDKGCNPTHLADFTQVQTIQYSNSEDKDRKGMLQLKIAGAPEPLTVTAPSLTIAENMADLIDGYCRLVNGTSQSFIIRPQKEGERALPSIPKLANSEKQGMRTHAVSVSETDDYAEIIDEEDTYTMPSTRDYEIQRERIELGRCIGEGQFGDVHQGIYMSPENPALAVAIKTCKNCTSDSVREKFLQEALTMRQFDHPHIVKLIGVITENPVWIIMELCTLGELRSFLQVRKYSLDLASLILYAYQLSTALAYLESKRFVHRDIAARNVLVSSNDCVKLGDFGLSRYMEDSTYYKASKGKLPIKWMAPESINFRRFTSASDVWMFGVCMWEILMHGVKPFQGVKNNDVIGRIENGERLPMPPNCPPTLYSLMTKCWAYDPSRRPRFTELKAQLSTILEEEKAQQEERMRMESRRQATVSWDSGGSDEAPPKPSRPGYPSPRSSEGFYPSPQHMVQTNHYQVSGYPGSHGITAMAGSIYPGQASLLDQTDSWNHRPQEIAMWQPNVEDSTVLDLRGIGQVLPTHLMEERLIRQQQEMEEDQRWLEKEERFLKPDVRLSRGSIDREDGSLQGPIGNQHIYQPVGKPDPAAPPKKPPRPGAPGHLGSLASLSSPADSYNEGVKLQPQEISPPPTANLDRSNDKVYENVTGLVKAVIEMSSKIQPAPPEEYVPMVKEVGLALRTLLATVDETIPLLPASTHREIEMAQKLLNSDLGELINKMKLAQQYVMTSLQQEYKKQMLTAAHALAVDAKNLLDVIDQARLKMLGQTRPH
From the text: This assay determines the ability of a test compound to inhibit tyrosine kinase activity of human Focal Adhesion Kinase (FAK).
DNA encoding FAK is obtained by total gene synthesis (Edwards M, International Biotechnology Lab 5(3), 19-25, 1987) or by cloning. These are then expressed in a suitable expression system to obtain polypeptide with tyrosine kinase activity.
Active FAK protein has been previously expressed in a baculovirus system using a similar N-terminal 6-histidine tag (Protein Expression And Purification, 1996, 7: 12-18). The human FAK cDNA was cloned into the baculovirus transplacement vector, pFastbac 1 (Life Technologies), and the recombinant construct was co-transfected into insect cells (for example Spodoptera frugiperda 21(Sf21)) with viral DNA to prepare recombinant baculovirus (details of the methods for the assembly of recombinant DNA molecules and the preparation and use of recombinant baculovirus can be found in standard texts for example Sambrook et al, 1989, Molecular cloning—A Laboratory Manual, 2nd edition, Cold Spring Harbour Laboratory Press and O'Reilly et al, 1992, Baculovirus Expression Vectors—A Laboratory Manual, W.H. Freeman and Co, New York. Details specific to the use of the pFastbac (‘Bac to Bac’) system are provided in Anderson et al., 1995, FOCUS (Life Technologies Bulletin Magazine), 17, p53.) […]

CDK4/Cyclin D1 = target: T2, CDK4/Cyclin D1 (Homo sapiens, UniProt P11802); assay: CDK4 Inhibition Assay (SPA, GST-Rb substrate); format: biochemical; settings: in vitro kinase assay; read-out: CDK4 inhibitory activity IC50
T2 construct: made in house; host or cells: SF21 insect cells (Spodoptera frugiperda), baculovirus co-infection; vector pVL1393
T2 sequence (P11802 whole entry): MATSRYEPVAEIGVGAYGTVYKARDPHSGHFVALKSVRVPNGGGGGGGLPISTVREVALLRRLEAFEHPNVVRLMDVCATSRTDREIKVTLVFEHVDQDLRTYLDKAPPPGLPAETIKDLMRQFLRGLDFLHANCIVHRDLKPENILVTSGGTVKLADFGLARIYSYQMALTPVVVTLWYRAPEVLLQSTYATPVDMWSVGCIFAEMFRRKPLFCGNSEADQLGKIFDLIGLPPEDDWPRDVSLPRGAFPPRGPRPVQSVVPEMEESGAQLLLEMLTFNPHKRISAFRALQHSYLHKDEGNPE
T2 sequence (P24385 whole entry partner): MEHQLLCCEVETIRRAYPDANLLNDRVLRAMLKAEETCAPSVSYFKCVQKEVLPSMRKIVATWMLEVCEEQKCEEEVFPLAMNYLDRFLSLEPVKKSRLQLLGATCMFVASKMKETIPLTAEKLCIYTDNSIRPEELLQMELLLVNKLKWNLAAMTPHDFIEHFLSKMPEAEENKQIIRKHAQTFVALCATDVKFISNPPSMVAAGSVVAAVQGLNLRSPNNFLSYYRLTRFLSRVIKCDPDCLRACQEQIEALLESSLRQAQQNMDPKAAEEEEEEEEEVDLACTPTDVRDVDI
Experimental: The compounds were tested in an in vitro kinase assay in 96 well format using Scintillation Proximity Assay (SPA—obtained from Amersham) for measuring incorporation of [γ-33-P]-Adenosine Triphosphate into a test substrate (GST-Retinoblastoma). In each well was placed the compound to be tested (diluted in DMSO and water to correct concentrations) and in control wells either p16 as an inhibitor control or DMSO as a positive control.
Approximately 0.5 μl of CDK4/Cyclin D1 partially-purified enzyme (amount dependent on enzyme activity) diluted in 25 μl incubation buffer was added to each well then 20 μl of GST-Rb/ATP/ATP33 mixture (containing 0.5 μg GST-Rb and 0.2 μM ATP and 0.14 μCi [γ-33-P]-Adenosine Triphosphate), and the resulting mixture shaken gently, then incubated at room temperature for 60 minutes. […]
The plates were sealed with Topseal-S plate sealers, left for two hours then spun at 2500 rpm, 1124×g., for 5 minutes. The plates were read on a Topcount for 30 seconds per well. […]
E. coli paste was resuspended in 10 ml/g of NETN buffer (50 mM Tris pH 7.5, 120 mM NaCl, 1 mM EDTA, 0.5% v/v NP-40, 1 mM PMSF, 1 ug/ml leupeptin, 1 ug/ml aprotinin and 1 ug/ml pepstatin) and sonicated for 2×45 seconds per 100 ml homogenate. […] The final product was analysed by Sodium Dodeca Sulfate (SDS) PAGE (Polyacrylamide gel) using 8-16% Tris-Glycine gels (Novex, San Diego, USA). […]

| Compound | IC50 [1] | IC50 (CDK4/Cyclin D1) |
| --- | --- | --- |
| CCCCN(CCCC)CCCNC(=O)c1ccc(Nc2ncc(Br)c(Nc3ccccc3)n2)cc1 [Example 47] | 97 nM | – |
| O=C(NCCN1CCCCC1)c1ccc(Nc2ncc(Br)c(Nc3ccccc3)n2)cc1 [Example 45] | – | 235 nM |
| O=C(c1ccc(Nc2ncc(Br)c(Nc3ccccc3)n2)cc1)N1CCC(N2CCCC2)CC1 [Example 52] | 814 nM | – |
